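Where inhibition never reached the appropriate level, the endpoint shown equals the highest concentration tested. Otherwise, values were interpolated linearly from a five-concentration, 48-hour dose response in 96-well plates. At the GI50, growth is halved.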 Active and inactive are the calls of the source. No stated cut-off is given here; in the data, active = GI50 up to about 1.1 µM and inactive = higher.
What was measured:
Assay in all cases: DTP human tumour cell line panel, 48 h
[1] = system: NCI-H522
[2] = system: 786-0
[3] = system: NCI-H460
[4] = system: SK-MEL-2
[5] = system: COLO 205
[6] = system: A498
[7] = system: MCF7
[8] = system: UACC-257
[9] = system: SNB-19
[10] = system: HT-29
[11] = system: HL-60
[12] = system: SK-OV-3
[13] = system: MDA-N
[14] = system: CCRF-CEM
[15] = system: IGROV-1
[16] = system: HOP-62
[17] = system: SW-620
[18] = system: PC-3
[19] = system: TK-10
[20] = system: RPMI-8226

Structure (SMILES) | GI50 [1] | GI50 [2] | GI50 [3] | GI50 [4] | GI50 [5] | GI50 [6] | GI50 [7] | GI50 [8] | GI50 [9] | GI50 [10] | GI50 [11] | GI50 [12] | GI50 [13] | GI50 [14] | GI50 [15] | GI50 [16] | GI50 [17] | GI50 [18] | GI50 [19] | GI50 [20]
C/N=C1\OC2=C3C(c4ccccc4)(O/C(=N/C)N(C)C3(c3ccccc3)OC2=O)N1C (stereo unspecified) | > 100 µM (inactive) | > 100 µM (inactive) | > 100 µM (inactive) | 23.7 µM (inactive) | > 100 µM (inactive) | > 100 µM (inactive) | > 100 µM (inactive) | > 100 µM (inactive) | > 100 µM (inactive) | > 100 µM (inactive) | > 100 µM (inactive) | > 100 µM (inactive) | > 100 µM (inactive) | > 100 µM (inactive) | > 100 µM (inactive) | > 100 µM (inactive) | > 100 µM (inactive) | > 100 µM (inactive) | > 100 µM (inactive) | –
CCOC(=O)C1CCCc2sc(N)c(C#N)c21 (stereo unspecified) | – | > 100 µM (inactive) | > 100 µM (inactive) | > 100 µM (inactive) | > 100 µM (inactive) | > 100 µM (inactive) | > 100 µM (inactive) | > 100 µM (inactive) | > 100 µM (inactive) | > 100 µM (inactive) | > 100 µM (inactive) | – | > 100 µM (inactive) | – | > 100 µM (inactive) | > 100 µM (inactive) | > 100 µM (inactive) | > 100 µM (inactive) | > 100 µM (inactive) | > 100 µM (inactive)
CC1=CC(C)(C)NN1C1=NS(=O)(=O)c2ccccc2N1C | > 100 µM (inactive) | > 100 µM (inactive) | > 100 µM (inactive) | > 100 µM (inactive) | > 100 µM (inactive) | > 100 µM (inactive) | > 100 µM (inactive) | > 100 µM (inactive) | > 100 µM (inactive) | > 100 µM (inactive) | > 100 µM (inactive) | > 100 µM (inactive) | > 100 µM (inactive) | 98.9 µM (inactive) | > 100 µM (inactive) | > 100 µM (inactive) | > 100 µM (inactive) | > 100 µM (inactive) | > 100 µM (inactive) | –
Cc1ccc(C2=CC(=O)/C(=C\C(=O)c3ccc(Cl)cc3)O2)cc1 | 1.97 µM (inactive) | 9.95 µM (inactive) | > 10 µM (inactive) | – | 13.3 µM (inactive) | 27.2 µM (inactive) | 10.6 µM (inactive) | 0.1 µM (active) | 49.2 µM (inactive) | 4.14 µM (inactive) | 0.902 µM (active) | 6.43 µM (inactive) | 3.2 µM (inactive) | 3.19 µM (inactive) | 16.2 µM (inactive) | 97.9 µM (inactive) | 2.39 µM (inactive) | 2.43 µM (inactive) | 3.23 µM (inactive) | 2.08 µM (inactive)
CN1c2ccccc2S(=O)(=O)n2c(COc3ccccc3)nnc21 | 56.8 µM (inactive) | 64.6 µM (inactive) | > 100 µM (inactive) | > 100 µM (inactive) | > 100 µM (inactive) | 57.8 µM (inactive) | > 100 µM (inactive) | > 100 µM (inactive) | > 100 µM (inactive) | > 100 µM (inactive) | 62.5 µM (inactive) | > 100 µM (inactive) | > 100 µM (inactive) | > 100 µM (inactive) | > 100 µM (inactive) | 35.4 µM (inactive) | > 100 µM (inactive) | > 100 µM (inactive) | > 100 µM (inactive) | –
O=C1/C(=C/c2cc3c(=O)c4ccccc4sc3s2)NC(=S)N1c1ccccc1 | > 100 µM (inactive) | 23.7 µM (inactive) | > 100 µM (inactive) | 78.7 µM (inactive) | > 100 µM (inactive) | > 100 µM (inactive) | > 100 µM (inactive) | > 100 µM (inactive) | 24 µM (inactive) | > 100 µM (inactive) | 12.2 µM (inactive) | – | > 100 µM (inactive) | – | > 100 µM (inactive) | 5.01 µM (inactive) | > 100 µM (inactive) | > 100 µM (inactive) | > 100 µM (inactive) | > 100 µM (inactive)

Reference: ChEMBL document CHEMBL1201862, “PubChem BioAssay data set” (2004)
